Laboratory results as given in patent US9575064B2, “Methods relating to testing for lysosomal storage disorders” (PerkinElmer Health Sciences, Inc., priority 2014, dated 2017).

Tests used:
[1] = target: T1, acid α-galactosidase A (GLA) (Homo sapiens, UniProt P06280); test: 6-plex DBS enzyme activity assay (FIA-MS/MS) with and without sodium oleate: GLA; assay type: biochemical
T1 construct: from tissue; host or cells: human dried blood spots (CDC control DBS: pooled cord blood, leukocyte-reduced adult blood)
T1 sequence (P06280 32-429): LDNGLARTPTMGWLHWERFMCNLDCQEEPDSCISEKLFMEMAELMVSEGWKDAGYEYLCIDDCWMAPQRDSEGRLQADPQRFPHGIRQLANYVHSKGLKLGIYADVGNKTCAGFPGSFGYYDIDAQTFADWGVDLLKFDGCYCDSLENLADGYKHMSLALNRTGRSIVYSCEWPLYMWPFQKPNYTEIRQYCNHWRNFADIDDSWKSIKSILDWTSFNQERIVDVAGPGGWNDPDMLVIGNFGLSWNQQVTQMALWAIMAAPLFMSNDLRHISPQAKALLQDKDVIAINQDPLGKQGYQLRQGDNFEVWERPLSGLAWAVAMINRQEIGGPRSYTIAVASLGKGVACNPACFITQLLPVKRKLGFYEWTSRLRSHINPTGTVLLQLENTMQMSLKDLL

[2] = target: T2, acid α-glucosidase (GAA) (Homo sapiens, UniProt P10253); test: 6-plex DBS enzyme activity assay (FIA-MS/MS) with and without sodium oleate: GAA; assay type: biochemical
T2 construct: from tissue; host or cells: human dried blood spots (CDC control DBS: pooled cord blood, leukocyte-reduced adult blood)

[3] = target: T3, galactocerebrosidase (GALC) (Homo sapiens, UniProt P54803); test: 6-plex DBS enzyme activity assay (FIA-MS/MS) with and without sodium oleate: GALC; assay type: biochemical; parameters: from tissue; host or cells: human dried blood spots (CDC control DBS: pooled cord blood, leukocyte-reduced adult blood)
T3 sequence (P54803 43-685): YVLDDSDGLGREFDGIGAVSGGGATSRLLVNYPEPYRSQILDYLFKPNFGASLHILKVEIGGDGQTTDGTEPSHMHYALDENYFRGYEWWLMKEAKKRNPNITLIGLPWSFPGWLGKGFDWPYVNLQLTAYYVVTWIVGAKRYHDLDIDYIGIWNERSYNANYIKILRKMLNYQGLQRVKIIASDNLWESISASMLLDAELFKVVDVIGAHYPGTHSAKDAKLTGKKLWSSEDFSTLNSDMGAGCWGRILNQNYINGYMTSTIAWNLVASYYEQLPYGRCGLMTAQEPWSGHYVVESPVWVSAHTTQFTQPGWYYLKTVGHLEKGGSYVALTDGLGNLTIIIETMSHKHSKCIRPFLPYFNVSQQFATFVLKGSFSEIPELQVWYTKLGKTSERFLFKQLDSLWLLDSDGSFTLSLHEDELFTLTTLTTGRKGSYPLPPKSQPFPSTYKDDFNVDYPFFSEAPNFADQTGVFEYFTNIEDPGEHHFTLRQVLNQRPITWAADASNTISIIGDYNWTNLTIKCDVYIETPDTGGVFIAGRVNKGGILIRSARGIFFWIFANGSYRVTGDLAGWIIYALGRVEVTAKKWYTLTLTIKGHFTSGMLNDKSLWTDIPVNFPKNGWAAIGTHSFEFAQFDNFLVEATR

[4] = target: T4, α-L-iduronidase (IDUA) (Homo sapiens, UniProt P35475); test: 6-plex DBS enzyme activity assay (FIA-MS/MS) with and without sodium oleate: IDUA; assay type: biochemical
T4 construct: from tissue; host or cells: human dried blood spots (CDC control DBS: pooled cord blood, leukocyte-reduced adult blood)
T4 sequence (P35475 28-653): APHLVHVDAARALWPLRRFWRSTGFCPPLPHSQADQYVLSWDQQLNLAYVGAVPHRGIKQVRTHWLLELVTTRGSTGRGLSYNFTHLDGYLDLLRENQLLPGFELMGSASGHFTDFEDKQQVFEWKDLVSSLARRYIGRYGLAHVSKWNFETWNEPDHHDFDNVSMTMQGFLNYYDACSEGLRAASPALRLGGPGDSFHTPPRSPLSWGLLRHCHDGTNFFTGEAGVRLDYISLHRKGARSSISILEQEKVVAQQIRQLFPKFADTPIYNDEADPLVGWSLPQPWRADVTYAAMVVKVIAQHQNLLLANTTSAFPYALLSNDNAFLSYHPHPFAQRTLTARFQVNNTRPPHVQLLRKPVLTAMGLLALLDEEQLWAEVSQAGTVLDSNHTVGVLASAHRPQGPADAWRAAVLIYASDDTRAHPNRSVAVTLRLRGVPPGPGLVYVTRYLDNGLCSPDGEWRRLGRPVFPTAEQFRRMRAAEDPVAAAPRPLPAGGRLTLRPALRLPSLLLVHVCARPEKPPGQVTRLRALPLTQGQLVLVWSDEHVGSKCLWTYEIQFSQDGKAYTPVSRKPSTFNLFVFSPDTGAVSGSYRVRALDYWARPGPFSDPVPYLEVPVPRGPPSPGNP

[5] = target: T5, acid sphingomylenase (ASM) (Homo sapiens, UniProt P17405); test: 6-plex DBS enzyme activity assay (FIA-MS/MS) with and without sodium oleate: ASM; assay type: biochemical
T5 construct: from tissue; host or cells: human dried blood spots (CDC control DBS: pooled cord blood, leukocyte-reduced adult blood)
T5 sequence (P17405 47-631): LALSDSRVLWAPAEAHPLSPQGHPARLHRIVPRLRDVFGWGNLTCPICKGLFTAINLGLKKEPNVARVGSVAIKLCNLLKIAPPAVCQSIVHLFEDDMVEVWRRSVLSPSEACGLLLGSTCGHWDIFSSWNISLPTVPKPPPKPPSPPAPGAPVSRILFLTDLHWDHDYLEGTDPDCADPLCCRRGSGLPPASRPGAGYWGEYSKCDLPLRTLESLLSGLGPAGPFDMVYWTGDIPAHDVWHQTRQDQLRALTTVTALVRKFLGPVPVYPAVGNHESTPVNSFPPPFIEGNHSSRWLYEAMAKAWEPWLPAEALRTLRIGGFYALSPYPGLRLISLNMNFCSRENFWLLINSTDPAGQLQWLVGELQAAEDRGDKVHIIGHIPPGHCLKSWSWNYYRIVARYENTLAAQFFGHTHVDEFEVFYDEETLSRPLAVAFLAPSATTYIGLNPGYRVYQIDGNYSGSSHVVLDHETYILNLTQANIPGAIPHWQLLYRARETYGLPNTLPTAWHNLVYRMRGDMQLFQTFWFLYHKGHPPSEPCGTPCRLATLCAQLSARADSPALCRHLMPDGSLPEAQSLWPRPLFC

[6] = target: T6, acid β-glucocerebrosidase (ABG) (Homo sapiens, UniProt P04062); test: 6-plex DBS enzyme activity assay (FIA-MS/MS) with and without sodium oleate: ABG; assay type: biochemical
T6 construct: from tissue; host or cells: human dried blood spots (CDC control DBS: pooled cord blood, leukocyte-reduced adult blood)
T6 sequence (P04062 40-536): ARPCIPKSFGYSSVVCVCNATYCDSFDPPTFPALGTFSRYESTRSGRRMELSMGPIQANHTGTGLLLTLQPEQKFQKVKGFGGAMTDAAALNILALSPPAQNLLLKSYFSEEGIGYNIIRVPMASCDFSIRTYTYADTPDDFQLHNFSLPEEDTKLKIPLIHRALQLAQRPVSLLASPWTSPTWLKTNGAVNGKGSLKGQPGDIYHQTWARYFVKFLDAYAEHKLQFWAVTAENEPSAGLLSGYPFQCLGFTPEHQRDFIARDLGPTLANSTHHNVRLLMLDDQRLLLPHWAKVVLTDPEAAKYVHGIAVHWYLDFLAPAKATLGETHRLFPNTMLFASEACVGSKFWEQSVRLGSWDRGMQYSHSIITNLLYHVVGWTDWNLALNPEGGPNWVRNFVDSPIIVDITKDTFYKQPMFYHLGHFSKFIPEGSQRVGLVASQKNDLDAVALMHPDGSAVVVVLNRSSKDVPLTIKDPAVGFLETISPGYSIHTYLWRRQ

[7] = target: T3, galactocerebrosidase (GALC); conditions: Zhang et al; Li et al; cited from earlier work
[8] = cited from earlier work
[9] = CDC High Control DBS, with sodium oleate
[10] = CDC High Control DBS, with vs without sodium oleate
[11] = CDC Low Control DBS, with sodium oleate
[12] = CDC Low Control DBS, with vs without sodium oleate
[13] = CDC Medium Control DBS, with sodium oleate
[14] = CDC Medium Control DBS, with vs without sodium oleate
[15] = Med/Low Control DBS ratio, with vs without sodium oleate
[16] = addition of sodium oleate, stated for the ceramides
[17] = two assays differing only by addition or lack of sodium oleate

Which “Enzyme Activity GLA” value [1, 9] does the source give for CCCCCCCC/C=C\CCCCCCCC(=O)[O-].[Na+] [sodium oleate] here?
Its value is 13.15 µmol/L/h.

And the “Sodium oleate gain GLA” value [1, 10]?
Its value is 104%.

And the “Enzyme Activity GLA” value [1, 11]?
The value was 1.00 µmol/L/h.

And the “Sodium oleate gain GLA” value [1, 12]?
The value was 95%.

What about the “Enzyme Activity GLA” value [1, 13] of the same compound?
The value was 6.57 µmol/L/h.

And the “Sodium oleate gain GLA” value [1, 14]?
Its value is 106%.

What about the “Sodium oleate gain of Med/Low ratio GLA” value [1, 15] of the same compound?
Its value is 114%.

What about the “CDC Med/Low Control DBS activity ratio GLA” value ([1]; with sodium oleate) of the same compound?
The value was 6.5.

What about the “Enzyme Activity GAA” value [2, 9] of the same compound?
The value was 13.48 µmol/L/h.

And the “Sodium oleate gain GAA” value [2, 10]?
The value was 110%.

What about the “Enzyme Activity GAA” value [2, 11] of the same compound?
The value was 0.99 µmol/L/h.

What about the “Sodium oleate gain GAA” value [2, 12] of the same compound?
The value was 105%.

What about the “Enzyme Activity GAA” value [2, 13] of the same compound?
The value was 7.08 µmol/L/h.

What about the “Sodium oleate gain GAA” value [2, 14] of the same compound?
The value was 115%.

What about the “Sodium oleate gain of Med/Low ratio GAA” value [2, 15] of the same compound?
Its value is 115%.

And the “CDC Med/Low Control DBS activity ratio GAA” value ([2]; with sodium oleate)?
The value was 7.2.

And the “Enzyme Activity GALC” value [3, 9]?
Its value is 6.72 µmol/L/h.

What about the “Sodium oleate gain GALC” value [3, 10] of the same compound?
Its value is 126%.

And the “Enzyme Activity GALC” value [3, 11]?
The value was 0.45 µmol/L/h.

And the “Sodium oleate gain GALC” value [3, 12]?
The value was 118%.

What about the “Enzyme Activity GALC” value [3, 13] of the same compound?
The value was 3.22 µmol/L/h.

What about the “Sodium oleate gain GALC” value [3, 14] of the same compound?
Its value is 133%.

What about the “Sodium oleate gain of Med/Low ratio GALC” value [3, 15] of the same compound?
Its value is 117%.

And the “widening of the gap between Low Control DBS and Medium Control DBS, GALC” value [3, 16]?
Its value is “approximately 25%”.

And the “enzyme activity GALC when sodium oleate was present” value [3, 17]?
The value was “improved”.

And the “CDC Med/Low Control DBS activity ratio GALC” value ([3]; with sodium oleate)?
Its value is 7.1.

And the “Enzyme Activity IDUA” value [4, 9]?
The value was 11.95 µmol/L/h.

What about the “Sodium oleate gain IDUA” value [4, 10] of the same compound?
Its value is 111%.

And the “Enzyme Activity IDUA” value [4, 11]?
Its value is 0.72 µmol/L/h.

What about the “Sodium oleate gain IDUA” value [4, 12] of the same compound?
The value was 107%.

And the “Enzyme Activity IDUA” value [4, 13]?
Its value is 5.86 µmol/L/h.

What about the “Sodium oleate gain IDUA” value [4, 14] of the same compound?
The value was 116%.

What about the “Sodium oleate gain of Med/Low ratio IDUA” value [4, 15] of the same compound?
The value was 114%.

And the “CDC Med/Low Control DBS activity ratio IDUA” value ([4]; with sodium oleate)?
Its value is 8.1.

And the “Enzyme Activity ASM” value [5, 9]?
Its value is 2.54 µmol/L/h.

And the “Sodium oleate gain ASM” value [5, 10]?
The value was 117%.

What about the “Enzyme Activity ASM” value [5, 11] of the same compound?
Its value is 0.16 µmol/L/h.

What about the “Sodium oleate gain ASM” value [5, 12] of the same compound?
Its value is 95%.

And the “Enzyme Activity ASM” value [5, 13]?
The value was 1.29 µmol/L/h.

What about the “Sodium oleate gain ASM” value [5, 14] of the same compound?
Its value is 122%.

What about the “Sodium oleate gain of Med/Low ratio ASM” value [5, 15] of the same compound?
Its value is 136%.

What about the “widening of the gap between Low Control DBS and Medium Control DBS, ASM” value [5, 16] of the same compound?
The value was “approximately 25%”.

And the “enzyme activity ASM when sodium oleate was present” value [5, 17]?
The value was “improved”.

And the “CDC Med/Low Control DBS activity ratio ASM” value ([5]; with sodium oleate)?
Its value is 8.0.

What about the “Enzyme Activity ABG” value [6, 9] of the same compound?
Its value is 11.46 µmol/L/h.

What about the “Sodium oleate gain ABG” value [6, 10] of the same compound?
The value was 162%.

And the “Enzyme Activity ABG” value [6, 11]?
The value was 0.95 µmol/L/h.

What about the “Sodium oleate gain ABG” value [6, 12] of the same compound?
The value was 159%.

And the “Enzyme Activity ABG” value [6, 13]?
The value was 5.44 µmol/L/h.

And the “Sodium oleate gain ABG” value [6, 14]?
The value was 175%.

What about the “Sodium oleate gain of Med/Low ratio ABG” value [6, 15] of the same compound?
The value was 120%.

What about the “widening of the gap between Low Control DBS and Medium Control DBS, ABG” value [6, 16] of the same compound?
Its value is “approximately 25%”.

What about the “enzyme activity ABG when sodium oleate was present” value [6, 17] of the same compound?
Its value is “improved”.

And the “CDC Med/Low Control DBS activity ratio ABG” value ([6]; with sodium oleate)?
The value was 5.8.

Which “effect on GALC enzyme” value [7] does the source give for CCCCCCCC/C=C\CCCCCCCC(=O)O [oleic acid] here?
The value was “enhancer”.

And the “solubility in aqueous buffers” value [8]?
The value was “very difficult to dissolve”.
